Source: patent US20160214974A1 (SYNGENTA PARTICIPATIONS AG, priority 2013, published 2016)
Where two headings read alike, the source gives them in different places. One block for each compound: values may come before it.

Assays:
[1] = system: Myzus persicae (Green Peach Aphid); test: Activity against Myzus persicae, sunflower leaf discs sprayed (Example B1); type: in vivo; details: foliar, 144 h, read-out: control of Myzus persicae (mortality)
Description: (§1) Activity Against Myzus persicae (Green Peach Aphid)
Sunflower leaf discs were placed on agar in a 24-well microtiter plate and sprayed with the test solutions at an application rate of 200 ppm. After drying, the leaf discs were infested with an aphid population of mixed ages. After an incubation period of 6 days, samples were checked for mortality.

[2] = system: Myzus persicae (Green Peach Aphid); test: Activity against Myzus persicae, pea seedlings with roots in test solution (Example B2); type: in vivo; details: 144 h, read-out: control of Myzus persicae (mortality)
Description: as §1
Pea seedlings, infested with an aphid population of mixed ages, were placed with the roots directly in the test solutions at an application rate of 24 ppm. 6 days after introduction, samples were checked for mortality.

[3] = system: Q-biotype strain of Bemisia tabaci (Neonicotinoid resistant); test: Control of neonicotinoid and pyrethroid resistant tobacco whitefly (Example B4 b); type: in vivo; details: 72 h, read-out: control of the Q-biotype (Neonicotinoid resistant) strain of Bemisia tabaci
[4] = system: Bemisia tabaci (Cotton White Fly); test: Activity against Bemisia tabaci, cotton leaf discs sprayed (Example B3); type: in vivo; details: foliar, 144 h, read-out: control of Bemisia tabaci (mortality)
Description: Activity Against Bemisia tabaci (Cotton White Fly)
Cotton leaf discs were placed on agar in a 24-well microtiter plate and sprayed with test solutions at an application rate of 200 ppm. After drying, the leaf discs were infested with 12 to 18 adults. After an incubation period of 6 days after infestation, samples were checked for mortality.

[5] = sunflower leaf discs sprayed at 200 ppm, mixed age aphids, 6 days
[6] = cotton leaf discs sprayed at 200 ppm, adults, 6 days

- melting point: 228 to 230 °C
SMILES: CC(C)(C)OC(=O)N1[C@@H]2CC[C@H]1C[C@](C(N)=S)(c1cncc(Br)c1)C2

SMILES: NC(=S)[C@@]1(c2cncc(Cl)c2)C[C@H]2C=C[C@@H](C1)N2CC(F)F [E.001, (1R,5S)-3-(5-chloro-3-pyridyl)-8-(2,2-difluoroethyl)-8-azabicyclo[3.2.1]oct-6-ene-3-carbothioamide]
- mortality at 200 ppm [1]: ≥ 80%
- mortality at 24 ppm [2]: ≥ 80%
- pest or weed control at 200 ppm ([3]; 200 ppm): ≥ 80%
- mortality at 200 ppm [4]: ≥ 80%

SMILES: NC(=S)[C@@]1(c2cncc(Cl)c2)C[C@H]2CC[C@@H](C1)N2CC(F)(F)F [E.002, (1S,5R)-3-(5-chloro-3-pyridyl)-8-(2,2,2-trifluoroethyl)-8-azabicyclo[3.2.1]octane-3-carbothioamide]
- mortality at 200 ppm [1]: ≥ 80%
- pest or weed control at 200 ppm [3]: ≥ 80%
- mortality at 200 ppm [4]: ≥ 80%

SMILES: C=C(Cl)CN1[C@@H]2CC[C@H]1C[C@](C(N)=S)(c1cncc(Br)c1)C2 [E.006, (1S,5R)-3-(5-bromo-3-pyridyl)-8-(2-chloroallyl)-8-azabicyclo[3.2.1]octane-3-carbothioamide]
- mortality at 200 ppm [1]: ≥ 80%
- mortality at 24 ppm [2]: ≥ 80%
- pest or weed control at 200 ppm [3]: ≥ 80%
- mortality at 200 ppm [4]: ≥ 80%

SMILES: NC(=S)[C@@]1(c2cncc(Br)c2)C[C@H]2CC[C@@H](C1)N2CC(F)(F)F [E.007, (1S,5R)-3-(5-bromo-3-pyridyl)-8-(2,2,2-trifluoroethyl)-8-azabicyclo[3.2.1]octane-3-carbothioamide]
- mortality at 200 ppm [1]: ≥ 80%
- mortality at 200 ppm [4]: ≥ 80%

SMILES: NC(=S)[C@@]1(c2cncc(Br)c2)C[C@H]2C=C[C@@H](C1)N2CCCC(F)(F)F [E.008, (1R,5S)-3-(5-bromo-3-pyridyl)-8-(4,4,4-trifluorobutyl)-8-azabicyclo[3.2.1]oct-6-ene-3-carbothioamide]
- mortality at 200 ppm [1]: ≥ 80%
- mortality at 24 ppm [2]: ≥ 80%
- pest or weed control at 200 ppm ([3]; 200 ppm): ≥ 80%
- mortality at 200 ppm [4]: ≥ 80%

SMILES: N#Cc1cncc([C@]2(C(N)=S)C[C@H]3CC[C@@H](C2)N3CC(F)(F)F)c1 [E.009, (1S,5R)-3-(5-cyano-3-pyridyl)-8-(2,2,2-trifluoroethyl)-8-azabicyclo[3.2.1]octane-3-carbothioamide]
- mortality at 200 ppm [1]: ≥ 80%
- pest or weed control at 200 ppm [3]: ≥ 80%
- mortality at 200 ppm [4]: ≥ 80%

SMILES: NC(=S)[C@@]1(c2cncc(Br)c2)C[C@H]2CC[C@@H](C1)N2 [E.010, (1R,5S)-3-(5-bromo-3-pyridyl)-8-azabicyclo[3.2.1]octane-3-carbothioamide]
- mortality at 200 ppm [1, 5]: ≥ 80%
- mortality at 24 ppm ([2]; pea seedlings, roots in test solution at 24 ppm, 6 days): ≥ 80%
- mortality at 200 ppm [4, 6]: ≥ 80%

SMILES: C=C(Cl)CN1[C@@H]2C=C[C@H]1C[C@](C(N)=S)(c1cncc(C#N)c1)C2 [E.012, (1 S,5R)-8-(2-chloroallyl)-3-(5-cyano-3-pyridyl)-8-azabicyclo[3.2.1]oct-6-ene-3-carbothioamide]
- mortality at 24 ppm [2]: ≥ 80%
- pest or weed control at 200 ppm ([3]; 200 ppm): ≥ 80%

SMILES: C=C(Cl)CN1[C@@H]2C=C[C@H]1C[C@](C(N)=S)(c1cncc(Br)c1)C2 [E.013, (1R,5S)-3-(5-bromo-3-pyridyl)-8-(2-chloroallyl)-8-azabicyclo[3.2.1]oct-6-ene-3-carbothioamide]
- mortality at 200 ppm [1]: ≥ 80%
- pest or weed control at 200 ppm ([3]; 200 ppm): ≥ 80%
- mortality at 200 ppm [4]: ≥ 80%

SMILES: NC(=S)[C@@]1(c2cncc(Br)c2)C[C@H]2C=C[C@@H](C1)N2 [E.015, (1S,5R)-3-(5-bromo-3-pyridyl)-8-azabicyclo[3.2.1]oct-6-ene-3-carbothioamide]
- mortality at 200 ppm [1, 5]: ≥ 80%
- mortality at 200 ppm [4, 6]: ≥ 80%

SMILES: NC(=S)[C@@]1(c2cncc(C3CC3)c2)C[C@H]2CC[C@@H](C1)N2CC(F)(F)F [E.023]
- mortality at 200 ppm [1, 5]: ≥ 80%

SMILES: NC(=S)[C@@]1(c2cncc(I)c2)C[C@H]2C=C[C@@H](C1)N2 [E.034, (1S,5R)-3-(5-iodo-3-pyridyl)-8-azabicyclo[3.2.1]oct-6-ene-3-carbothioamide]
- mortality at 200 ppm [1, 5]: ≥ 80%
- mortality at 200 ppm [4, 6]: ≥ 80%

SMILES: NC(=S)[C@@]1(c2cncc(I)c2)C[C@H]2C=C[C@@H](C1)N2CC(F)F [E.039, (1 S,5R)-8-(2,2-difluoroethyl)-3-(5-iodo-3-pyridyl)-8-azabicyclo[3.2.1]oct-6-ene-3-carbothioamide]
- mortality at 200 ppm [1]: ≥ 80%
- mortality at 24 ppm [2]: ≥ 80%
- pest or weed control at 200 ppm ([3]; 200 ppm): ≥ 80%
- mortality at 200 ppm [4]: ≥ 80%

SMILES: NC(=S)[C@@]1(c2cncc(I)c2)C[C@H]2C=C[C@@H](C1)N2CC(F)(F)F [E.060, (1R,5S)-3-(5-iodo-3-pyridyl)-8-(2,2,2-trifluoroethyl)-8-azabicyclo[3.2.1]oct-6-ene-3-carbothioamide]
- mortality at 200 ppm [1, 5]: ≥ 80%
- mortality at 200 ppm [4, 6]: ≥ 80%

SMILES: C=CCN1[C@@H]2C=C[C@H]1C[C@](C(N)=S)(c1cncc(I)c1)C2 [E.063, (1R,5S)-8-allyl-3-(5-iodo-3-pyridyl)-8-azabicyclo[3.2.1]oct-6-ene-3-carbothioamide]
- mortality at 200 ppm [1]: ≥ 80%
- mortality at 24 ppm [2]: ≥ 80%
- pest or weed control at 200 ppm ([3]; 200 ppm): ≥ 80%
- mortality at 200 ppm [4]: ≥ 80%

SMILES: C[Si](C)(C)C#Cc1cncc([C@]2(C(N)=S)C[C@H]3C=C[C@@H](C2)N3CC(F)(F)F)c1 [E.068, (1R,5S)-8-(2,2,2-trifluoroethyl)-3-[5-(2-trimethylsilylethynyl)-3-pyridyl]-8-azabicyclo[3.2.1]oct-6-ene-3-carbothioamide]
- mortality at 200 ppm [1, 5]: ≥ 80%

SMILES: C#Cc1cncc([C@]2(C(N)=S)C[C@H]3C=C[C@@H](C2)N3CC(F)(F)F)c1 [E.070, (1R,5S)-3-(5-ethynyl-3-pyridyl)-8-(2,2,2-trifluoroethyl)-8-azabicyclo[3.2.1]oct-6-ene-3-carbothioamide]
- mortality at 200 ppm [1, 5]: ≥ 80%

SMILES: NC(=S)[C@@]1(c2cncc(F)c2)C[C@H]2C=C[C@@H](C1)N2CC(F)F [E.071, (1R,5S)-8-(2,2-difluoroethyl)-3-(5-fluoro-3-pyridyl)-8-azabicyclo[3.2.1]oct-6-ene-3-carbothioamide]
- mortality at 200 ppm [1]: ≥ 80%
- mortality at 24 ppm [2]: ≥ 80%
- pest or weed control at 200 ppm ([3]; 200 ppm): ≥ 80%
- mortality at 200 ppm [4]: ≥ 80%

SMILES: NC(=S)[C@@]1(c2cncc(I)c2)C[C@H]2CC[C@@H](C1)N2CC(F)F [E.072, (1 S,5R)-8-(2,2-difluoroethyl)-3-(5-iodo-3-pyridyl)-8-azabicyclo[3.2.1]octane-3-carbothioamide]
- mortality at 200 ppm [1]: ≥ 80%
- mortality at 24 ppm [2]: ≥ 80%
- pest or weed control at 200 ppm [3]: ≥ 80%
- mortality at 200 ppm [4]: ≥ 80%

SMILES: O=[N+]([O-])NC1=NCCN1Cc1ccc(Cl)nc1 [Imidacloprid, reference compound]
- pest or weed control at 200 ppm [3]: < 80%

SMILES: N#C/N=C1\SCCN1Cc1ccc(Cl)nc1 [Thiacloprid, reference compound]
- pest or weed control at 200 ppm [3]: < 80%
